Laboratory results from US12692261B2, “Substituted heterocyclic compounds and therapeutic uses thereof” (Bayer Aktiengesellschaft, priority 2020, dated 2026).

Assays:
[1] = target: T1, full-length human CSNK1D (Homo sapiens, UniProt P48730); assay: CSNK1D Assay (ADP-Glo, 1 μM ATP); assay type: biochemical; conditions: Table 3, read-out: CSNK1D IC50 [mol/l] (median)
T1 construct: N-terminal Glutathion-S-Transferase (GST) and full-length human CSNK1D; purchased Life Technologies PV3665; host or cells: baculovirus infected insect cells
In short: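 ADP-Glo luminescence reports ADP generated by GST-fused full-length human CSNK1D (insect-cell expressed, about 0.5 ng/μL) acting on a biotinylated peptide at 1 μM ATP. Test compounds were pre-bound to enzyme 15 min at 22° C in 50 mM HEPES pH 7.5.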

[2] = target: T2, full-length human CSNK1A1 (Homo sapiens, UniProt P48729); assay: CSNK1A1 Assay 2 (ADP-Glo, 1 μM ATP, substrate biotin-Ahx-KRRRAL-pS-VASLPGL); assay type: biochemical; conditions: Table 3, read-out: CSNK1A1 Assay 2 IC50 [mol/l] (median)
T2 construct: N-terminal Glutathion-S-Transferase (GST) and full-length human CSNK1A1; purchased Life Technologies PV4174; host or cells: baculovirus infected insect cells
In short: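 Activity read as ADP generated (ADP-Glo luciferase luminescence, 1 h detection steps at 22 °C). Enzyme was insect-cell-expressed GST–full-length human CSNK1A1, compound-preincubated 15 min before reaction with phosphopeptide substrate and 1 μM ATP in 50 mM HEPES pH 7.5, 10 mM MgCl2.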

T2 sequence (P48729 whole entry): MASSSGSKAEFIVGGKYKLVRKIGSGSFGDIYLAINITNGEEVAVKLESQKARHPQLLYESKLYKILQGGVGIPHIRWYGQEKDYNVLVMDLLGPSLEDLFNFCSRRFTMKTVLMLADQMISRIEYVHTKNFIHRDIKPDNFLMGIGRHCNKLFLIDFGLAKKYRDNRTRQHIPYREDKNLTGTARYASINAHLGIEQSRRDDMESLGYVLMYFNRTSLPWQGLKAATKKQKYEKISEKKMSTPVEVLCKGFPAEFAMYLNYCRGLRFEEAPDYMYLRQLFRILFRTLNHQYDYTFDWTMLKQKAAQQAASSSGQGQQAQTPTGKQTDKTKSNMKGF
T1 sequence (P48730 whole entry): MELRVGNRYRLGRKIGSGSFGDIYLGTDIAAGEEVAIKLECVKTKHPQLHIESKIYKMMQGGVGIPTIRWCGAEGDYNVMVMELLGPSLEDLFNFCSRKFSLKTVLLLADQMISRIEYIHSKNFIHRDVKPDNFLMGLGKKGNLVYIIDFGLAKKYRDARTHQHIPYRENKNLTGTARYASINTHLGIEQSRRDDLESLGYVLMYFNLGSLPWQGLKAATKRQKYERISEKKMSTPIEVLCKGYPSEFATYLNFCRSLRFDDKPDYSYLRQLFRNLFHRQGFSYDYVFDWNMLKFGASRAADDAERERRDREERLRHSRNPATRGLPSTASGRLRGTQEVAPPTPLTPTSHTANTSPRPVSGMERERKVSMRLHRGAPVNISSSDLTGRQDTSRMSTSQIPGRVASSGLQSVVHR

SMILES | IC50 [1] [nM] | IC50 [2] [nM]
O=C(Nc1cc(-c2[nH]c3cc(Cl)cnc3c2-c2ccccn2)ccn1)C(CC(F)F)c1ccc(F)cc1 (single isomer, unassigned) [Example 89, (−)—N-{4-[6-chloro-3-(pyridin-2-yl)-1H-pyrrolo[3,2-b]pyridin-2-yl]pyridin-2-yl}-4,4-difluoro-2-(4-fluorophenyl)butanamide] | 104 | 89
Cc1cnc2c(-c3ccccn3)c(-c3ccnc(NC(=O)C(CC(F)F)c4ccc(F)cc4)c3)[nH]c2n1 (single isomer, unassigned; (+)) [Example 86, (+)-4,4-difluoro-2-(4-fluorophenyl)-N-{4-[3-methyl-7-(pyridin-2-yl)-5H-pyrrolo[2,3-b]pyrazin-6-yl]pyridin-2-yl}butanamide] | 6.16 | 2.89
COc1cnc2c(-c3ccccn3)c(-c3ccnc(NC(=O)C(CC(F)F)c4ccc(F)cc4)c3)[nH]c2c1 (stereo not shown) [Example 81, 4,4-difluoro-2-(4-fluorophenyl)-N-{4-[6-methoxy-3-(pyridin-2-yl)-1H-pyrrolo[3,2-b]pyridin-2-yl]pyridin-2-yl}butanamide] | 5.85 | 4.02
Cc1ccnc2c(-c3ccccn3)c(-c3ccnc(NC(=O)C(CC(F)F)c4ccc(F)cc4)c3)[nH]c12 (stereo not shown) [Example 84, 4,4-difluoro-2-(4-fluorophenyl)-N-{4-[7-methyl-3-(pyridin-2-yl)-1H-pyrrolo[3,2-b]pyridin-2-yl]pyridin-2-yl}butanamide] | 7.35 | 4.77
Cc1cnc2c(-c3ccccn3)c(-c3ccnc(NC(=O)C(CC(F)F)c4ccc(F)cc4)c3)[nH]c2n1 (stereo not shown) [Example 85, 4,4-difluoro-2-(4-fluorophenyl)-N-{4-[3-methyl-7-(pyridin-2-yl)-5H-pyrrolo[2,3-b]pyrazin-6-yl]pyridin-2-yl}butanamide] | 7.11 | 4.21
